Measurements as given in patent US20100003679A1, “ASSESSMENT OF CELLULAR COMPOSITION AND FRACTIONAL VIABILITY AND USES THEREOF” (University of Miami, priority 2006, published 2010).

How the values were obtained:
Format in all cases: cell-based
[1] = test system: PDC (CA19-9+ ductal cells) of human islet preparations; assay: Simultaneous β-cell/PDC viability by FACS after noxious stimuli: ductal cell subset; settings: 24 h, SNAP 0.5 mM, H2O2 200 μM, IL-1β 50 U/ml + TNF-α 1,000 U/ml + IFN-γ 1,000 U/ml, vs absence of stimulus
Description: (§1) Assessment of PDC-specific viability: Single cell suspensions were incubated for 30 min at 37° C. in phosphate buffered saline (PBS) without Ca^2+ and Mg^2+ with Newport Green PDX acetoxymethylether (NG; […]) and tetramethylrhodamineethylester (TMRE; 100 ng/ml; both from Molecular Probes). Cells were incubated with anti-CA19-9 antibody (1:100) for 15 min followed by goat anti-mouse antibody (Alexa-647). After washing, cells were stained with 7-aminoactinomycin D (7-AAD; Molecular Probes), a marker of cell death. Cell suspensions were analyzed (minimum 3.0 104 events) using a FACScan cytometer with the CellQuest-pro software (Becton Dickinson, Mountain View, Calif.). We have evaluated apoptosis selectively in the NG^bright and CA19-9+ cells according to the scheme in FIGS. 19A-E. After counting, dead cells (7-AAD+) were excluded from further analysis, live β-cells (NG^bright) and PDC (CA19-9^+) were analyzed for mitochondrial membrane potential (TMRE), which allows discriminating between healthy (TMRE^+) and apoptotic (TMRE^−) cells. […]

[2] = test system: β-cells (NG bright) of human islets; assay: Simultaneous β-cell/PDC viability by FACS after noxious stimuli: β-cell subset; settings: human islet cells, 24 h; SNAP 0.5 mM; H2O2 200 μM; IL-1β 50 U/ml + TNF-α 1,000 U/ml + IFN-γ 1,000 U/ml; vs absence of stimulus
Description: as §1

[3] = test system: β-cells (NG bright) of human islets; assay: β-cell apoptosis after delivery of noxious stimuli (TMRE staining in NG bright subset, FACS); settings: SNP 0.5 mM 18 h, H2O2 200 μM 18 h, IL-1β 50 U/ml alone or with TNF-α 1000 U/ml and IFN-γ 1000 U/ml 24 h, vs absence of stimulus
Description: Determination of fractional β-cell viability. For assessment of apoptosis, single cell suspensions were incubated with 1 μM Newport Green PDX acetoxymethylether (NG; Molecular Probes) and 100 ng/ml of tetramethylrhodamine ethyl ester (TMRE; Molecular Probes) for 30 min at 37° C. in PBS without Ca^2+ and Mg^2+. Newport Green allows for the definition of cell subsets according to zinc content (18). TMRE selectively binds to mitochondrial membranes, allowing for detection of apoptosis (that results in decreased staining) (19-20). After washing, cells were stained with 7-aminoactinomycin D (7-AAD; Molecular Probes), which binds to DNA when cell membrane permeability is altered after cell death. Cell suspensions were analyzed (minimum 3.0×10^4 events) using a FACScan cytometer (Becton Dickinson, Mountain View, Calif.) with the CellQuest software.
Delivery of pro-apoptotic stimuli to islet cells: Islets were treated with selected compounds to induce apoptosis. The nitric oxide (NO) donor sodium nitroprusside (Baxter Healthcare Corporation, Deerfield, Ill.) was used at 0.5 mM for 18 hours. Hydrogen peroxide (H2O2; Sigma) was used at 200 μM for 18 hours. IL-1-β (50 U/ml) alone or in combination with TNF-α (1000 U/ml) and IFN-γ (1000 U/ml) was used for 24 hours. […]

Row | Compound | apoptosis by TMRE staining in ductal cell (PDC) subset [1] | apoptosis by TMRE staining in β-cell subset [2] | percentage of apoptotic β-cells (TMRE−, NG bright) [3]
1 | CC(=O)NC(C(=O)O)C(C)(C)SN=O (racemic) [SNAP, S-Nitroso-N-acetyl-DL-penicillamine] | increased apoptosis | increased apoptosis | 
2 | IL-1β: cytokine used as pro-apoptotic stimulus on islets |  |  | increase in the percentage of apoptotic β-cells
3 | OO [H2O2, Hydrogen peroxide] | increased apoptosis | increased apoptosis | increase in the percentage of apoptotic β-cells
